Source: US8952024B2, “Herbicidal pyrimidone derivatives” (E I du Pont de Nemours and Company, priority 2009, dated 2015)

Columns and labels:
Format in all cases: in vivo
[1] = system: giant foxtail (Setaria faberii); assay: Test A pre-/postemergence plant response
Method in brief: (§1)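 Seeds planted in loam soil/sand blend; test chemicals in non-phytotoxic solvent mixture with surfactant applied as directed soil spray preemergence and, concurrently, postemergence to plants 2–10 cm tall at one- to two-leaf stage. Greenhouse ~10 days; visual injury vs untreated controls, 0 (no effect) to 100 (complete control).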

[2] = system: velvetleaf (Abutilon theophrasti); assay: Test A pre-/postemergence plant response
Method in brief: as §1

[3] = system: wheat (Triticum aestivum); assay: Test A pre-/postemergence plant response
Method in brief: as §1

[4] = system: barnyardgrass (Echinochloa crus-galli); assay: Test A pre-/postemergence plant response
Method in brief: as §1

[5] = system: pigweed (Amaranthus retroflexus); assay: Test A pre-/postemergence plant response
Method in brief: as §1

[6] = system: corn (Zea mays); assay: Test A pre-/postemergence plant response
Method in brief: as §1

[7] = system: morningglory (Ipomoea spp.); assay: Test A pre-/postemergence plant response
Method in brief: as §1

[8] = system: large crabgrass (Digitaria sanguinalis); assay: Test A pre-/postemergence plant response
Method in brief: as §1

[9] = system: ducksalad (Heteranthera limosa); assay: Test B flooded paddy test; conditions: for Plant response rating, Flood, Ducksalad: 250 g ai/ha, flooded paddy test, visual rating on 0 to 100 scale (0 no effect, 100 complete control) after 13 to 15 days; for Plant response rating, Ducksalad: Flood (flooded paddy test), 13 to 15 days
Method in brief: (§2)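 Seedlings reaching 2 leaves are flooded 3 cm deep; test material is delivered to that water, which stays at the same depth. Plants remain in a greenhouse 13–15 days and are then scored by eye versus controls from 0 to 100.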

[10] = system: barnyardgrass (Echinochloa crus-galli); assay: Test B flooded paddy test; conditions: for Plant response rating, Flood, Barnyardgrass: 250 g ai/ha, flooded paddy test, visual rating on 0 to 100 scale (0 no effect, 100 complete control) after 13 to 15 days; for Plant response rating, Barnyardgrass: Flood (flooded paddy test), 13 to 15 days
Method in brief: as §2

[11] = system: umbrella sedge (Cyperus difformis); assay: Test B flooded paddy test; conditions: for Plant response rating, Flood, Sedge, Umbrella: 250 g ai/ha, flooded paddy test, visual rating on 0 to 100 scale (0 no effect, 100 complete control) after 13 to 15 days; for Plant response rating, Sedge, Umbrella: Flood (flooded paddy test), 13 to 15 days
Method in brief: as §2

[12] = system: rice (Oryza sativa); assay: Test B flooded paddy test; conditions: for Plant response rating, Flood, Rice: 250 g ai/ha, flooded paddy test, visual rating on 0 to 100 scale (0 no effect, 100 complete control) after 13 to 15 days; for Plant response rating, Rice: Flood (flooded paddy test), 13 to 15 days
Method in brief: as §2

[13] = Postemergence, 125 g ai/ha, visual injury, 0 to 100 scale (0 no effect, 100 complete control), approx. ten days
[14] = Postemergence, 500 g ai/ha, 0 to 100 scale, 0 = no effect, 100 = complete control, approx. ten days
[15] = Preemergence, 125 g ai/ha, 0 to 100 scale, 0 = no effect, 100 = complete control
[16] = Preemergence, 500 g ai/ha, visual injury, 0 to 100 scale (0 no effect, 100 complete control), approx. ten days
[17] = 31 g ai/ha, scale of 0 to 100 where 0 is no effect and 100 is complete control
[18] = 62 g ai/ha, scale 0 to 100, 0 is no effect, 100 is complete control
[19] = 125 g ai/ha, scale 0 to 100, 0 is no effect, 100 is complete control

SMILES: Cc1ccc(-n2c(-c3ccccc3)ncc(C(=O)C3=C(O)CCCC3=O)c2=O)cc1 [Compound 8]
- Foxtail, Giant plant response rating [1, 13]: 90
- Plant response rating, Foxtail, Giant [1, 14]: 100
- Plant response rating, Foxtail, Giant [1, 15]: 40
- Plant response rating, Foxtail, Giant [1, 16]: 90
- Velvetleaf plant response rating [2, 13]: 100
- Plant response rating, Velvetleaf [2, 14]: 100
- Plant response rating, Velvetleaf [2, 15]: 50
- Plant response rating, Velvetleaf [2, 16]: 90
- Wheat plant response rating [3, 13]: 10
- Plant response rating, Wheat [3, 14]: 50
- Plant response rating, Wheat [3, 15]: 0
- Plant response rating, Wheat [3, 16]: 20
- Barnyardgrass plant response rating [4, 13]: 90
- Plant response rating, Barnyardgrass [4, 14]: 100
- Plant response rating, Barnyardgrass [4, 15]: 10
- Plant response rating, Barnyardgrass [4, 16]: 80
- Pigweed plant response rating [5, 13]: 100
- Plant response rating, Pigweed [5, 14]: 100
- Plant response rating, Pigweed [5, 15]: 90
- Plant response rating, Pigweed [5, 16]: 90
- Corn plant response rating [6, 13]: 10
- Plant response rating, Corn [6, 14]: 50
- Plant response rating, Corn [6, 15]: 0
- Plant response rating, Corn [6, 16]: 20
- Morningglory plant response rating [7, 13]: 90
- Plant response rating, Morningglory [7, 14]: 100
- Plant response rating, Morningglory [7, 15]: 0
- Plant response rating, Morningglory [7, 16]: 70
- Crabgrass, Large plant response rating [8, 13]: 80
- Plant response rating, Crabgrass, Large [8, 14]: 90
- Plant response rating, Crabgrass, Large [8, 15]: 40
- Plant response rating, Crabgrass, Large [8, 16]: 100
- Plant response rating, Flood, Ducksalad [9]: 90
- Plant response rating, Ducksalad [9, 17]: 30
- Plant response rating, Ducksalad [9, 18]: 85
- Plant response rating, Ducksalad [9, 19]: 85
- Plant response rating, Flood, Barnyardgrass [10]: 45
- Plant response rating, Barnyardgrass [10, 17]: 0
- Plant response rating, Barnyardgrass [10, 18]: 0
- Plant response rating, Barnyardgrass [10, 19]: 20
- Plant response rating, Flood, Sedge, Umbrella [11]: 95
- Plant response rating, Sedge, Umbrella [11, 17]: 30
- Plant response rating, Sedge, Umbrella [11, 18]: 65
- Plant response rating, Sedge, Umbrella [11, 19]: 85
- Plant response rating, Flood, Rice [12]: 50
- Plant response rating, Rice [12, 17]: 0
- Plant response rating, Rice [12, 18]: 0
- Plant response rating, Rice [12, 19]: 15

SMILES: Cc1ccccc1-n1c(-c2ccccc2)ncc(C(=O)C2=C(O)CCCC2=O)c1=O [Compound 12]
- Foxtail, Giant plant response rating [1, 13]: 90
- Plant response rating, Foxtail, Giant [1, 14]: 90
- Plant response rating, Foxtail, Giant [1, 15]: 20
- Plant response rating, Foxtail, Giant [1, 16]: 90
- Velvetleaf plant response rating [2, 13]: 100
- Plant response rating, Velvetleaf [2, 14]: 100
- Plant response rating, Velvetleaf [2, 15]: 70
- Plant response rating, Velvetleaf [2, 16]: 90
- Wheat plant response rating [3, 13]: 0
- Plant response rating, Wheat [3, 14]: 0
- Plant response rating, Wheat [3, 15]: 0
- Plant response rating, Wheat [3, 16]: 0
- Barnyardgrass plant response rating [4, 13]: 90
- Plant response rating, Barnyardgrass [4, 14]: 90
- Plant response rating, Barnyardgrass [4, 15]: 10
- Plant response rating, Barnyardgrass [4, 16]: 70
- Pigweed plant response rating [5, 13]: 100
- Plant response rating, Pigweed [5, 14]: 100
- Plant response rating, Pigweed [5, 15]: 80
- Plant response rating, Pigweed [5, 16]: 100
- Corn plant response rating [6, 13]: 40
- Plant response rating, Corn [6, 14]: 80
- Plant response rating, Corn [6, 15]: 0
- Plant response rating, Corn [6, 16]: 0
- Morningglory plant response rating [7, 13]: 100
- Plant response rating, Morningglory [7, 14]: 100
- Plant response rating, Morningglory [7, 15]: 30
- Plant response rating, Morningglory [7, 16]: 90
- Crabgrass, Large plant response rating [8, 13]: 90
- Plant response rating, Crabgrass, Large [8, 14]: 100
- Plant response rating, Crabgrass, Large [8, 15]: 50
- Plant response rating, Crabgrass, Large [8, 16]: 90
- Plant response rating, Flood, Ducksalad [9]: 55
- Plant response rating, Ducksalad [9, 17]: 0
- Plant response rating, Ducksalad [9, 18]: 25
- Plant response rating, Ducksalad [9, 19]: 35
- Plant response rating, Flood, Barnyardgrass [10]: 0
- Plant response rating, Barnyardgrass [10, 17]: 0
- Plant response rating, Barnyardgrass [10, 18]: 0
- Plant response rating, Barnyardgrass [10, 19]: 0
- Plant response rating, Flood, Sedge, Umbrella [11]: 65
- Plant response rating, Sedge, Umbrella [11, 17]: 20
- Plant response rating, Sedge, Umbrella [11, 18]: 40
- Plant response rating, Sedge, Umbrella [11, 19]: 50
- Plant response rating, Flood, Rice [12]: 0
- Plant response rating, Rice [12, 17]: 0
- Plant response rating, Rice [12, 18]: 0
- Plant response rating, Rice [12, 19]: 0
